Assay results taken from the CheMixHub viscosity set.
± gives the uncertainty stated by the source.

Experiment: xn = mol fraction of the nth substance listed

SMILES: CCCCCCCCn1cc[n+](C)c1.O=[N+]([O-])[O-] + CCCCO
- viscosity (293.15 K, 101 kPa, x2 = 0.168): 378.7 ± 100 mPa·s

SMILES: CC(=O)CC(C)(C)O + CC(=O)CC(C)C
- viscosity (298.15 K, 101 kPa, x2 = 0.1301): 2.157 ± 0.021 mPa·s
- viscosity (298.15 K, 101 kPa, x2 = 0.2473): 1.707 ± 0.017 mPa·s
- viscosity (298.15 K, 101 kPa, x2 = 0.3676): 1.351 ± 0.013 mPa·s
- viscosity (298.15 K, 101 kPa, x2 = 0.4821): 1.108 ± 0.011 mPa·s
- viscosity (298.15 K, 101 kPa, x2 = 0.5836): 0.943 ± 0.009 mPa·s
- viscosity (298.15 K, 101 kPa, x2 = 0.6974): 0.796 ± 0.008 mPa·s
- viscosity (298.15 K, 101 kPa, x2 = 0.8046): 0.687 ± 0.007 mPa·s
- viscosity (298.15 K, 101 kPa, x2 = 0.9001): 0.608 ± 0.006 mPa·s

SMILES: CCCCCCCO + CC#N
- viscosity (298.15 K, 101 kPa, x2 = 0.0959): 3.772 ± 0.32 mPa·s
- viscosity (298.15 K, 101 kPa, x2 = 0.2368): 2.953 ± 0.26 mPa·s
- viscosity (298.15 K, 101 kPa, x2 = 0.3327): 2.267 ± 0.2 mPa·s
- viscosity (298.15 K, 101 kPa, x2 = 0.4126): 1.836 ± 0.17 mPa·s
- viscosity (298.15 K, 101 kPa, x2 = 0.5459): 1.278 ± 0.12 mPa·s
- viscosity (298.15 K, 101 kPa, x2 = 0.6546): 0.943 ± 0.091 mPa·s
- viscosity (298.15 K, 101 kPa, x2 = 0.741): 0.716 ± 0.072 mPa·s
- viscosity (298.15 K, 101 kPa, x2 = 0.8119): 0.58 ± 0.061 mPa·s
- viscosity (298.15 K, 101 kPa, x2 = 0.8706): 0.487 ± 0.053 mPa·s
- viscosity (298.15 K, 101 kPa, x2 = 0.9199): 0.423 ± 0.047 mPa·s
- viscosity (298.15 K, 101 kPa, x2 = 0.9633): 0.384 ± 0.044 mPa·s
- viscosity (303.15 K, 101 kPa, x2 = 0.0959): 3.561 ± 0.31 mPa·s
- viscosity (303.15 K, 101 kPa, x2 = 0.2368): 2.592 ± 0.23 mPa·s
- viscosity (303.15 K, 101 kPa, x2 = 0.3327): 2.022 ± 0.18 mPa·s
- viscosity (303.15 K, 101 kPa, x2 = 0.4126): 1.634 ± 0.15 mPa·s
- viscosity (303.15 K, 101 kPa, x2 = 0.5459): 1.149 ± 0.11 mPa·s
- viscosity (303.15 K, 101 kPa, x2 = 0.6546): 0.857 ± 0.084 mPa·s
- viscosity (303.15 K, 101 kPa, x2 = 0.741): 0.658 ± 0.067 mPa·s
- viscosity (303.15 K, 101 kPa, x2 = 0.8119): 0.547 ± 0.058 mPa·s
- viscosity (303.15 K, 101 kPa, x2 = 0.8706): 0.463 ± 0.051 mPa·s
- viscosity (303.15 K, 101 kPa, x2 = 0.9199): 0.402 ± 0.046 mPa·s
- viscosity (303.15 K, 101 kPa, x2 = 0.9633): 0.366 ± 0.043 mPa·s
- viscosity (308.15 K, 101 kPa, x2 = 0.0959): 2.881 ± 0.25 mPa·s
- viscosity (308.15 K, 101 kPa, x2 = 0.2368): 2.277 ± 0.2 mPa·s
- viscosity (308.15 K, 101 kPa, x2 = 0.3327): 1.808 ± 0.16 mPa·s
- viscosity (308.15 K, 101 kPa, x2 = 0.4126): 1.457 ± 0.13 mPa·s
- viscosity (308.15 K, 101 kPa, x2 = 0.5459): 1.047 ± 0.099 mPa·s
- viscosity (308.15 K, 101 kPa, x2 = 0.6546): 0.786 ± 0.078 mPa·s
- viscosity (308.15 K, 101 kPa, x2 = 0.741): 0.611 ± 0.063 mPa·s
- viscosity (308.15 K, 101 kPa, x2 = 0.8119): 0.51 ± 0.055 mPa·s
- viscosity (308.15 K, 101 kPa, x2 = 0.8706): 0.433 ± 0.048 mPa·s
- viscosity (308.15 K, 101 kPa, x2 = 0.9199): 0.382 ± 0.044 mPa·s
- viscosity (308.15 K, 101 kPa, x2 = 0.9633): 0.35 ± 0.041 mPa·s

SMILES: CC(C)=CC(=O)C=C(C)C + CCCCCOC(C)=O
- viscosity (298.15 K, 101 kPa, x1 = 0.078): 0.813 ± 0.01 mPa·s
- viscosity (298.15 K, 101 kPa, x1 = 0.142): 0.834 ± 0.01 mPa·s

SMILES: CCN(CC)S(C)(=O)=O + CO
- viscosity (303.15 K, 101.33 kPa, x1 = 0.065): 60400 ± 8500 mPa·s
- viscosity (303.15 K, 101.33 kPa, x1 = 0.1394): 73000 ± 11000 mPa·s
- viscosity (303.15 K, 101.33 kPa, x1 = 0.2155): 88400 ± 14000 mPa·s
- viscosity (303.15 K, 101.33 kPa, x1 = 0.2885): 103400 ± 16000 mPa·s
- viscosity (303.15 K, 101.33 kPa, x1 = 0.3717): 123400 ± 20000 mPa·s
- viscosity (303.15 K, 101.33 kPa, x1 = 0.4509): 145100 ± 25000 mPa·s
- viscosity (303.15 K, 101.33 kPa, x1 = 0.5148): 164500 ± 29000 mPa·s
- viscosity (303.15 K, 101.33 kPa, x1 = 0.5856): 187800 ± 35000 mPa·s
- viscosity (303.15 K, 101.33 kPa, x1 = 0.6922): 228900 ± 45000 mPa·s
- viscosity (303.15 K, 101.33 kPa, x1 = 0.7686): 263600 ± 54000 mPa·s
- viscosity (303.15 K, 101.33 kPa, x1 = 0.8304): 295600 ± 63000 mPa·s
- viscosity (303.15 K, 101.33 kPa, x1 = 0.9084): 341400 ± 76000 mPa·s
